Experimental data: PubChem BioAssay (NCI)
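Growth conditions: 96-well plates. Treatment: test compound, 48 hours, 5 concentrations. Analysis: linear interpolation between bracketing concentrations; unreached endpoints set to highest concentration. At the GI50, growth is halved. TGI marks complete inhibition of growth.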

Assays:
Experiment in all cases: NCI tumour cell line growth inhibition, 48 h
[1] = tested on: SNB-78 CNS
[2] = tested on: KM20L2 colon
[3] = tested on: DMS 114 small cell lung
[4] = tested on: BT-549 breast
[5] = tested on: HS 578T breast
[6] = tested on: MDA-MB-435
[7] = tested on: MDA-N
[8] = tested on: HOP-18 NSCLC

N#CC(C(=O)/C(=N\NC(N)=O)C(C#N)c1ccccc1)c1ccccc1 (stereo not drawn)
TGI [1]: > 100 µM | TGI [2]: > 100 µM

O=C(Nc1ccc(Cl)c(Cl)c1)C(=O)C(C(=O)c1ccccc1-c1ccccc1)C1OC(=O)c2ccccc21 (stereo not drawn)
TGI [3]: 27 µM | TGI [1]: > 100 µM | TGI [2]: 52.7 µM

C/C(=C(\c1ccc(OCCN2CCCCCC2)cc1)c1ccc(OC(=O)c2ccccc2)cc1)c1ccc(Cl)cc1
GI50 [4]: 4.56 µM | TGI [4]: 8.99 µM | GI50 [5]: 3.04 µM | TGI [5]: 9.76 µM | GI50 [6]: 4.24 µM | TGI [6]: 8.87 µM

CN(/N=C\c1ccnc2ccccc12)c1ccc([N+](=O)[O-])cc1
TGI [1]: > 100 µM | TGI [2]: > 100 µM

COC(=O)C1C(=O)O[C@@H](c2cc(OC)c(OC)cc2OC)C1C(=O)OC (mixture of isomers)
TGI [3]: > 100 µM | TGI [1]: > 100 µM | TGI [2]: > 100 µM

CCc1nc2ccc(N=Nc3c(O)ccc4ccccc34)cc2[nH]1
TGI [4]: 36.2 µM | TGI [3]: 35.1 µM | TGI [5]: 48.6 µM | TGI [7]: 51.5 µM | TGI [6]: 67.5 µM | TGI [1]: 32.7 µM | TGI [2]: 36.9 µM

O=C1/C(=C/c2ccc(Cl)cc2)CNC/C1=C\c1ccc(Cl)cc1
TGI [4]: 8.41 µM | TGI [5]: > 41.7 µM | TGI [7]: 16.1 µM | TGI [8]: 18 µM | TGI [6]: 13.7 µM | TGI [1]: 12.1 µM

C=CCC(N[C@H](CO)c1ccccc1)c1cn(Cc2ccccc2Cl)c(=O)n(Cc2ccccc2Cl)c1=O (stereo partly drawn)
TGI [4]: 7.01 µM | GI50 [5]: 26 µM | TGI [5]: > 100 µM | GI50 [6]: 15.9 µM | TGI [6]: 38.6 µM

O=C(c1ccc(Cl)cc1)c1ccc(OCCCOc2ccc(C(=O)c3ccc(Cl)cc3)cc2Cl)c(Cl)c1
TGI [3]: > 100 µM | TGI [1]: > 100 µM | TGI [2]: > 100 µM

CNS(=O)(=O)NNS(=O)(=O)c1ccc(OC)cc1
TGI [3]: > 100 µM | TGI [2]: > 100 µM

CC(=O)C1=C(O)C=C2Oc3c(C(=O)/C=C/c4cc(Cl)cc(Cl)c4)c(O)c(C)c(O)c3[C@]2(C)C1=O
GI50 [4]: 0.395 µM | TGI [4]: 0.961 µM | GI50 [5]: 0.641 µM | TGI [5]: 3.89 µM | GI50 [6]: 0.493 µM | TGI [6]: 1.87 µM

COc1cc(C2c3cc4c(cc3C(OC(=O)C[n+]3ccccc3)C3COC(=O)C23)OCO4)cc(OC)c1OC (stereo not drawn)
GI50 [4]: < 0.01 µM | TGI [4]: > 100 µM | GI50 [5]: < 0.0241 µM | TGI [5]: > 100 µM | GI50 [6]: < 0.01 µM | TGI [6]: < 0.01 µM

COc1cc(C(=O)c2cnc(-c3cccc4[nH]ccc34)[nH]2)cc(OC)c1OC
TGI [4]: 22 µM | TGI [5]: > 100 µM | GI50 [6]: 0.0282 µM

Clc1ccccc1-c1nnc2c(Cc3ccccc3)nc3ccccc3n12
GI50 [4]: > 25.9 µM | TGI [4]: > 100 µM | GI50 [5]: 9.04 µM | TGI [5]: > 100 µM | GI50 [6]: > 100 µM | TGI [6]: > 100 µM

CCN(CC)CCCC(C)N/C(=C1\C(=O)NC(=O)\C1=C(/NC(C)CCCN(CC)CC)c1cccc(OC)c1)c1cccc(OC)c1 (stereo not drawn)
GI50 [4]: 1.31 µM | TGI [4]: 3.82 µM | GI50 [5]: 1.11 µM | TGI [5]: 3.22 µM | GI50 [6]: 0.803 µM | TGI [6]: 1.52 µM

COC(=O)c1oc2c(C(=O)/C=C/c3ccc(OC)cc3)c(OCCN(C)C)ccc2c1C
GI50 [4]: 4.88 µM | TGI [4]: 16 µM | GI50 [5]: 6.27 µM | TGI [5]: 22.4 µM | GI50 [6]: 4.57 µM | TGI [6]: 16.3 µM

CC1NC(=O)C2=C1C(=O)NC(=O)C2 (stereo not drawn)
GI50 [4]: > 100 µM | TGI [4]: > 100 µM | GI50 [5]: > 100 µM | TGI [5]: > 100 µM | GI50 [6]: > 100 µM | TGI [6]: > 100 µM

Cn1c2c(c3c(Cl)nncc31)Cc1ccccc1-2
GI50 [4]: 20.7 µM | TGI [4]: 64.9 µM | GI50 [5]: 28 µM | TGI [5]: > 100 µM | GI50 [6]: 29.7 µM | TGI [6]: > 100 µM

CCNC(=O)Oc1ccc(/C(=C(/C)Cc2ccc(OC)cc2)c2ccc(OCCN(CC)CC)cc2)cc1
GI50 [4]: 1.73 µM | TGI [4]: 4.16 µM | GI50 [5]: 2.18 µM | TGI [5]: 5.16 µM | GI50 [6]: 1.67 µM | TGI [6]: 3.18 µM

Cc1cc(C)c(-c2noc(-c3ccc(Cl)cc3)c2C2=NCCCN2)c(C)c1
TGI [8]: > 100 µM | TGI [1]: > 100 µM | TGI [2]: 70.6 µM

CCN(Cc1cccc(Cl)c1)c1ccc(CO)c(Cl)c1
GI50 [4]: 11.5 µM | TGI [4]: 24.3 µM | GI50 [5]: 13.6 µM | TGI [5]: 37.5 µM | GI50 [6]: 13.5 µM | TGI [6]: 27.5 µM

CCCCCCCCCCCCOC1C(CNC(=O)C2OC3OC(C)(C)OC3C2NC(=O)CN2CCN(c3ccc(OC)cc3)CC2)OC2OC(C)(C)OC21 (stereo not drawn)
GI50 [4]: 6.19 µM | TGI [4]: 17.4 µM | GI50 [5]: 3.78 µM | TGI [5]: 17 µM | GI50 [6]: 5.12 µM | TGI [6]: 17.7 µM

CC(=O)N1N=C(c2ccc(Nc3nc(Nc4ccc(F)cc4)nc(Nc4ccc(F)cc4)n3)cc2)CC1c1ccc(N(C)C)cc1 (stereo not drawn)
GI50 [4]: 11 µM | TGI [4]: 54.8 µM | GI50 [5]: 1.6 µM | TGI [5]: 9.02 µM | GI50 [6]: 3 µM | TGI [6]: 11.1 µM

CC1C2C=C(O)C(=O)C(C2=O)C1c1ccccc1 (stereo not drawn)
TGI [1]: > 100 µM | TGI [2]: > 100 µM

Nc1ccccc1C(=O)CCC1C(=O)NC(=S)NC1=O
TGI [3]: > 100 µM | TGI [5]: > 100 µM | TGI [7]: > 100 µM | TGI [8]: > 100 µM | TGI [2]: > 100 µM

COc1cccc(Nc2nc3ccccc3c3occc23)c1
GI50 [4]: 10.4 µM | TGI [4]: 23 µM | GI50 [5]: 9.07 µM | TGI [5]: 29.7 µM | GI50 [6]: 10.7 µM | TGI [6]: 22.6 µM

Cc1cc(Nc2cc(N3CCN(C)CC3)nc(/C=C/c3ccccc3)n2)n[nH]1
GI50 [4]: 1.12 µM | TGI [4]: > 8.73 µM | GI50 [5]: 0.517 µM | TGI [5]: 1.86 µM | GI50 [6]: 0.406 µM | TGI [6]: > 5.28 µM

Cc1cc(=O)n(-c2cc3cccccc-3n2)[nH]1
TGI [3]: 7.73 µM | TGI [8]: 85.2 µM | TGI [2]: > 100 µM

N#Cc1cnc(Nc2cc(NC[C@H]3CNCCO3)c(C(F)(F)F)cn2)cn1
GI50 [4]: 5.62 µM | TGI [4]: 32 µM | GI50 [5]: 0.882 µM | TGI [5]: 60.3 µM | GI50 [6]: 3.56 µM | TGI [6]: 27.2 µM

CC1=CC(C)(C)NN1C1=NS(=O)(=O)c2ccccc2N1C
TGI [4]: > 100 µM | TGI [5]: > 100 µM | TGI [7]: > 100 µM | TGI [6]: > 100 µM
